We go through one substance from US8587857B2, “Electro-wetting display device and non-polar color solution thereof” (Industrial Technology Research Institute, priority 2010, dated 2013).

The nature of the data set: solubility of dye in dodecane non-polar solvent, with or without trimethylbenzene (TMB) improvement agent. It counts as physicochemical. As to the method: For example, when a red dye (for example, the C.I. solvent red 164) is dissolved in a dodecane non-polar solvent, a solubility thereof is about 4 wt %.
For another example, when a blue dye (for example, the C.I. solvent blue 98) is dissolved in the dodecane non-polar solvent, a solubility thereof is about 8 wt %.

Take C.I. solvent blue 98: the solubility by setting is: (dye dissolved in dodecane non-polar solvent added with trimethylbenzene (TMB) improvement agent) 21.5 wt %; (dye dissolved in dodecane non-polar solvent, no improvement agent) “about 8 wt %”.
